ChEMBL document CHEMBL1201862, “PubChem BioAssay data set” (2004)
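1) Cells in 96-well plates. 2) Compound, 48 h, 5 concentrations. 3) Linear interpolation between surrounding doses. 4) Unreached endpoint = highest concentration. Here, GI50 denotes the concentration required for 50% inhibition of growth.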 The source made the active and inactive calls. No stated cut-off is given here; in the data, active = GI50 up to about 1.1 µM and inactive = higher.

Key:
Assay in all cases: NCI anticancer screen, dose series, 48 h
K562 = tested on: K562
LOX IMVI = tested on: LOX IMVI
SK-OV-3 = tested on: SK-OV-3
U-251 = tested on: U-251
SN12C = tested on: SN12C
SK-MEL-28 = tested on: SK-MEL-28
DU-145 = tested on: DU-145
HT-29 = tested on: HT-29
OVCAR-5 = tested on: OVCAR-5
MDA-N = tested on: MDA-N
OVCAR-3 = tested on: OVCAR-3
A498 = tested on: A498
UO-31 = tested on: UO-31
SR = tested on: SR
HL-60 = tested on: HL-60
RPMI-8226 = tested on: RPMI-8226
MDA-MB-231 = tested on: MDA-MB-231
A549 = tested on: A549
OVCAR-4 = tested on: OVCAR-4

Row | SMILES | GI50 (K562) | GI50 (LOX IMVI) | GI50 (SK-OV-3) | GI50 (U-251) | GI50 (SN12C) | GI50 (SK-MEL-28) | GI50 (DU-145) | GI50 (HT-29) | GI50 (OVCAR-5) | GI50 (MDA-N) | GI50 (OVCAR-3) | GI50 (A498) | GI50 (UO-31) | GI50 (SR) | GI50 (HL-60) | GI50 (RPMI-8226) | GI50 (MDA-MB-231) | GI50 (A549) | GI50 (OVCAR-4)
1 | CCOC(=O)c1ccc(N(C)Cc2cnc3nc(N)nc(N)c3n2)cc1 | 2.58 µM (inactive) | 5.5 µM (inactive) | 18.5 µM (inactive) | 8.99 µM (inactive) | 40.4 µM (inactive) | 17.9 µM (inactive) | 15.8 µM (inactive) | 7.98 µM (inactive) | 17.4 µM (inactive) | 18.5 µM (inactive) | 14.5 µM (inactive) | 13.1 µM (inactive) | 14.2 µM (inactive) | 6.81 µM (inactive) | 80.4 µM (inactive) | 74 µM (inactive) | 21.7 µM (inactive) |  | 
2 | C=C1CC[C@@]2(C)[C@@H]([C@@H]1C)[C@H]1CC[C@@H]3[C@@]4(C)CC[C@H](O)C(C)(C)[C@@H]4CC[C@@]3(C)[C@]1(C)C[C@@H]2O |  | 1.99 µM (inactive) | 3.79 µM (inactive) | 1.73 µM (inactive) | 2.52 µM (inactive) | 4.12 µM (inactive) | 4.57 µM (inactive) | 3.9 µM (inactive) | 4.25 µM (inactive) | 8.53 µM (inactive) | 2.37 µM (inactive) | 2.16 µM (inactive) | 2.5 µM (inactive) | > 100 µM (inactive) | 1.53 µM (inactive) | > 100 µM (inactive) | 1.96 µM (inactive) | 2.05 µM (inactive) | 2.49 µM (inactive)
3 | COc1c2occc2c(OC)c2c(=O)c(S(=O)(=O)NC(=O)Nc3ccc(Cl)cc3)coc12 | > 10 µM (inactive) | > 10 µM (inactive) | > 10 µM (inactive) | > 10 µM (inactive) | > 10 µM (inactive) | > 10 µM (inactive) | > 10 µM (inactive) | > 10 µM (inactive) | > 10 µM (inactive) | > 10 µM (inactive) | > 10 µM (inactive) | > 10 µM (inactive) | > 10 µM (inactive) | > 10 µM (inactive) | > 10 µM (inactive) | > 10 µM (inactive) | > 10 µM (inactive) | > 10 µM (inactive) | > 10 µM (inactive)
4 | C[C@H](CCC(=O)O[C@@H]1CC[C@@]2(C)C(CC[C@H]3[C@@H]4CC[C@H]([C@H](C)CCc5nc6ccccc6[nH]5)[C@@]4(C)CC[C@@H]32)C1)[C@H]1CC[C@H]2[C@@H]3CCC4C[C@H](O)CC[C@]4(C)[C@H]3CC[C@]12C (stereo not given in full) | > 100 µM (inactive) | 3.95 µM (inactive) | > 81.5 µM (inactive) | 36.7 µM (inactive) | > 100 µM (inactive) | > 100 µM (inactive) | > 100 µM (inactive) | > 57.5 µM (inactive) | > 100 µM (inactive) | > 100 µM (inactive) | > 100 µM (inactive) | > 87.5 µM (inactive) | 2.43 µM (inactive) | > 100 µM (inactive) | > 100 µM (inactive) | > 100 µM (inactive) | > 67.9 µM (inactive) | > 100 µM (inactive) | 0.501 µM (active)
5 | O=[N+]([O-])c1ccc2ncccc2c1CCc1c([N+](=O)[O-])ccc2ncccc12 | > 100 µM (inactive) | > 100 µM (inactive) | > 100 µM (inactive) | > 100 µM (inactive) | > 100 µM (inactive) | > 100 µM (inactive) | > 100 µM (inactive) | > 100 µM (inactive) | > 100 µM (inactive) | > 100 µM (inactive) | > 100 µM (inactive) | > 100 µM (inactive) | > 100 µM (inactive) | > 100 µM (inactive) | > 100 µM (inactive) | > 100 µM (inactive) | > 100 µM (inactive) | > 100 µM (inactive) | > 100 µM (inactive)
6 | CC(=O)Nc1cc2nc3n(c2cc1C)CCC3OC(C)=O (stereo not given) | > 100 µM (inactive) | > 100 µM (inactive) | > 100 µM (inactive) | > 100 µM (inactive) | > 100 µM (inactive) | > 100 µM (inactive) | > 100 µM (inactive) | > 100 µM (inactive) | > 100 µM (inactive) | > 100 µM (inactive) | > 100 µM (inactive) | > 100 µM (inactive) | > 100 µM (inactive) | > 100 µM (inactive) | > 100 µM (inactive) | > 100 µM (inactive) | > 100 µM (inactive) | > 100 µM (inactive) | > 100 µM (inactive)
7 | C=CCN(CCNS(=O)(=O)c1ccc(C)cc1)S(=O)(=O)c1ccc(C)cc1 | > 54.1 µM (inactive) | 17.3 µM (inactive) | 12.9 µM (inactive) | > 49.5 µM (inactive) | > 72.6 µM (inactive) | > 91.4 µM (inactive) | 54.6 µM (inactive) | 9.77 µM (inactive) | 58.2 µM (inactive) | 46.3 µM (inactive) | 19 µM (inactive) | 6.07 µM (inactive) | > 50.2 µM (inactive) | > 100 µM (inactive) | 21.9 µM (inactive) | 24.6 µM (inactive) | > 100 µM (inactive) | 13.9 µM (inactive) | 12.2 µM (inactive)
